# Measured values published in patent US10681909B2, “Herbicidal triazoles” (FMC Corporation, priority 2014, dated 2020).
# Columns and labels:
# velvetleaf = test: Test A postemergence; format: in vivo, Abutilon theophrasti; conditions: Abutilon theophrasti, post-emergence, 240 h, 0 to 100 scale (0 no effect, 100 complete control), approx. 10 d, read-out: Plant response rating, Velvetleaf
# Procedure, shortened: (§1)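 Loam/sand soil mix; compound in non-phytotoxic solvent + surfactant. Pre: directed soil spray right after planting seed. Post: potted plants 2–10 cm, 1–2 leaf stage, sprayed with same formulation.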
# ryegrass, Ital. [1] = test: Test D postemergence; format: in vivo, Lolium multiflorum; conditions: scale 0 to 100
# From the text: (§2) Seeds of plant species selected from bluegrass (annual bluegrass, Poa annua), blackgrass (Alopecurus myosuroides), canarygrass (Phalaris minor), chickweed (common chickweed, Stellaria media), galium (catchweed bedstraw, Galium aparine), bromegrass, down (downy bromegrass, Bromus tectorum), Russian thistle (Salsola kali), field poppy (Papaver rhoeas), field violet (Viola arvensis), foxtail, green (green foxtail, Setaria viridis), deadnettle (henbit deadnettle, Lamium amplexicaule), ryegrass, Ital. (Italian ryegrass, Lolium multiflorum), kochia (Kochia scoparia), lambsquarters (Chenopodium album), oilseed rape (Brassica napus), pigweed (Amaranthus retroflexus), chamomile (scentless chamomile, Matricaria inodora), speedwell (bird's-eye speedwell, Veronica persica), barley, spring (spring barley, Hordeum vulgare), wheat, spring (spring wheat, Triticum aestivum), buckwheat, wild (wild buckwheat, Polygonum convolvulus), wild mustard (Sinapis arvensis), oat, wild (wild oat, Avena fatua), radish, wild (wild radish, Raphanus raphanistrum), […]), barley, winter (winter barley, Hordeum vulgare), and wheat, winter (winter wheat, Triticum aestivum) were planted into a silt loam soil and treated preemergence with test chemicals formulated in a non-phytotoxic solvent mixture which included a surfactant. At the same time, these species were planted in pots containing Sunshine Redi-Earth® planting medium comprising spaghnum peat moss, vermiculite, starter nutrients and dolomitic limestone and treated with postemergence applications of the test chemicals formulated in the same manner. Plants ranged in height from 2 to 18 cm (1- to 4-leaf stage). Treated plants and controls were maintained in a controlled growth environment for 14 to 21 d after which time all species were compared to controls and visually evaluated. […] A dash (-) response means no test result.
# chickweed = test: Test D preemergence; format: in vivo, Stellaria media; conditions: for Plant response rating: Chickweed: scale 0 to 100
# From the text: as §2
# ryegrass, Ital. [2] = test: Test D preemergence; format: in vivo, Lolium multiflorum; conditions: for Plant response rating: Ryegrass, Ital.: scale 0 to 100
# From the text: as §2
# wheat = test: Test A preemergence; format: in vivo, Triticum aestivum; conditions: Triticum aestivum, pre-emergence, 240 h, 0 to 100 scale (0 no effect, 100 complete control), read-out: Plant response rating, Wheat
# Procedure, shortened: as §1
# wheat, winter = test: Test D postemergence; format: in vivo, Triticum aestivum; conditions: scale 0 to 100
# From the text: as §2
# wheat, spring = test: Test D postemergence; format: in vivo, Triticum aestivum; conditions: scale 0 to 100
# From the text: as §2
# galium = test: Test D postemergence; format: in vivo, Galium aparine; conditions: scale 0 to 100
# From the text: as §2
# canarygrass = test: Test D postemergence; format: in vivo, Phalaris minor; conditions: scale 0 to 100
# From the text: as §2
# windgrass = test: Test D preemergence; format: in vivo, Apera spica-venti; conditions: for Plant response rating: Windgrass: scale 0 to 100
# From the text: as §2
# johnsongrass = test: Test C preemergence; format: in vivo, Sorghum halepense; conditions: for Plant response rating (scale of 0 to 100 where 0 is no effect and 100 is complete control): Johnsongrass, preemergence; for Johnsongrass plant response rating (0 to 100): Preemergence, visual rating after 13 to 15 d
# From the text: Seeds of plant species selected from blackgrass (Alopecurus myosuroides), ryegrass, Italian (Italian ryegrass, Lolium multiflorum), wheat (winter wheat, Triticum aestivum), galium (catchweed bedstraw, Galium aparine), corn (Zea mays), crabgrass, large (large crabgrass, Digitaria sanguinalis), foxtail, giant, (giant foxtail, Setaria faberii), johnsongrass (Sorghum halepense), lambsquarters (Chenopodium album), morningglory (Ipomoea coccinea), nutsedge, yellow (yellow nutsedge, Cyperus esculentus), pigweed (Amaranthus retroflexus), ragweed (common ragweed, Ambrosia elatior), soybean (Glycine max), barnyardgrass (Echinochloa crus-galli), oilseed rape (Brassica napus), waterhemp (common waterhemp, Amaranthus rudis), and velvetleaf (Abutilon theophrasti) were planted into a blend of loam soil and sand and treated preemergence with test chemicals formulated in a non-phytotoxic solvent mixture which included a surfactant. At the same time, plants selected from these crop and weed species and also chickweed (common chickweed, Stellaria media), oat, wild (wild oat, Avena fatua), and kochia (Kochia scoparia), were planted in pots containing Sunshine Redi-Earth® planting medium comprising spaghnum peat moss, vermiculite, starter nutrients and dolomitic limestone and treated with postemergence applications of test chemicals formulated in the same manner. Plants ranged in height from 2 to 18 cm (1- to 4-leaf stage) for postemergence treatments. […] A dash (-) response means no test result.
# barley, winter = test: Test D postemergence; format: in vivo, Hordeum vulgare; conditions: scale 0 to 100
# From the text: as §2
# barley, spring = test: Test D postemergence; format: in vivo, Hordeum vulgare; conditions: scale 0 to 100
# From the text: as §2
# [3] = 16 g ai/ha, 0 is no effect, 100 is complete control
compound,measurement,setting,value
"CCOc1nc(-c2ccc(F)cc2)nn1Cc1ccnc(C(F)(F)F)c1 [Compound 8, 4-[[5-ethoxy-3-(4-fluorophenyl)-1H-1,2,4-triazol-1-yl]methyl]-2-(trifluoromethyl)pyridine]",pest or weed control at 125 g/ha,velvetleaf; 125 g ai/ha,90%
same,pest or weed control at 500 g/ha,velvetleaf; 500 g ai/ha,100%
same,"Plant response rating: Ryegrass, Ital.","ryegrass, Ital. [1]; 31 g ai/ha",35
same,"Plant response rating: Ryegrass, Ital.","ryegrass, Ital. [1]; 62 g ai/ha",35
same,"Plant response rating: Ryegrass, Ital.","ryegrass, Ital. [1]; 125 g ai/ha",55
same,"Plant response rating: Ryegrass, Ital.","ryegrass, Ital. [1]; 250 g ai/ha",55
same,Plant response rating: Chickweed,chickweed; 31 g ai/ha,100
same,Plant response rating: Chickweed,chickweed; 62 g ai/ha,100
same,Plant response rating: Chickweed,chickweed; 125 g ai/ha,100
same,Plant response rating: Chickweed,chickweed; 250 g ai/ha,100
same,"Plant response rating: Ryegrass, Ital.","ryegrass, Ital. [2]; 62 g ai/ha",40
same,"Plant response rating: Ryegrass, Ital.","ryegrass, Ital. [2]; 125 g ai/ha",95
same,"Plant response rating: Ryegrass, Ital.","ryegrass, Ital. [2]; 250 g ai/ha",100
same,plant injury at 125 g/ha,wheat; 125 g ai/ha,80%
same,plant injury at 500 g/ha,"wheat; 500 g ai/ha, approx. 10 d",100%
same,"Plant response rating: Wheat, Winter","wheat, winter; 31 g ai/ha",25
same,"Plant response rating: Wheat, Winter","wheat, winter; 62 g ai/ha",35
same,"Plant response rating: Wheat, Winter","wheat, winter; 125 g ai/ha",35
same,"Plant response rating: Wheat, Winter","wheat, winter; 250 g ai/ha",35
same,"Plant response rating: Wheat, Spring","wheat, spring; 31 g ai/ha",25
same,"Plant response rating: Wheat, Spring","wheat, spring; 62 g ai/ha",25
same,"Plant response rating: Wheat, Spring","wheat, spring; 125 g ai/ha",35
same,"Plant response rating: Wheat, Spring","wheat, spring; 250 g ai/ha",35
same,Plant response rating: Galium,galium; 31 g ai/ha,75
same,Plant response rating: Galium,galium; 62 g ai/ha,90
same,Plant response rating: Galium,galium; 125 g ai/ha,95
same,Plant response rating: Galium,galium; 250 g ai/ha,95
same,Plant response rating: Canarygrass,canarygrass; 31 g ai/ha,55
same,Plant response rating: Canarygrass,canarygrass; 62 g ai/ha,60
same,Plant response rating: Canarygrass,canarygrass; 125 g ai/ha,65
same,Plant response rating: Canarygrass,canarygrass; 250 g ai/ha,75
same,Plant response rating: Windgrass,windgrass; 62 g ai/ha,90
same,Plant response rating: Windgrass,windgrass; 125 g ai/ha,100
same,Plant response rating: Windgrass,windgrass; 250 g ai/ha,100
same,Plant response rating (scale of 0 to 100 where 0 is no effect and 100 is complete control),johnsongrass; 125 g ai/ha,98
same,Plant response rating (scale of 0 to 100 where 0 is no effect and 100 is complete control),johnsongrass; 250 g ai/ha,100
same,Johnsongrass plant response rating (0 to 100),johnsongrass; 31 g ai/ha,85
same,Johnsongrass plant response rating (0 to 100),johnsongrass; 62 g ai/ha,98
same,"Plant response rating: Barley, Winter","barley, winter; 31 g ai/ha",20
same,"Plant response rating: Barley, Winter","barley, winter; 62 g ai/ha",30
same,"Plant response rating: Barley, Winter","barley, winter; 125 g ai/ha",35
same,"Plant response rating: Barley, Winter","barley, winter; 250 g ai/ha",35
same,"Plant response rating: Barley, Spring","barley, spring; 31 g ai/ha",25
same,"Plant response rating: Barley, Spring","barley, spring; 62 g ai/ha",30
same,"Plant response rating: Barley, Spring","barley, spring; 125 g ai/ha",35
same,"Plant response rating: Barley, Spring","barley, spring; 250 g ai/ha",35
"CCOc1nc(-c2ccc(C(F)(F)F)cc2)nn1Cc1ccnc(C(F)(F)F)c1 [Compound 35, 4-[[5-ethoxy-3-[4-(trifluoromethyl)phenyl]-1H-1,2,4-triazole-1-yl]methyl]-2-(trifluoromethyl)pyridine]","Plant response rating: Ryegrass, Ital.","ryegrass, Ital. [1]; 16 g ai/ha",30
same,"Plant response rating: Ryegrass, Ital.","ryegrass, Ital. [1]; 31 g ai/ha",60
same,"Plant response rating: Ryegrass, Ital.","ryegrass, Ital. [1]; 62 g ai/ha",65
same,"Plant response rating: Ryegrass, Ital.","ryegrass, Ital. [1]; 125 g ai/ha",75
same,"Plant response rating (0 to 100), Chickweed",chickweed; [3],70
same,Plant response rating: Chickweed,chickweed; 31 g ai/ha,85
same,Plant response rating: Chickweed,chickweed; 62 g ai/ha,100
same,Plant response rating: Chickweed,chickweed; 125 g ai/ha,100
same,"Plant response rating (0 to 100), Ryegrass, Ital.","ryegrass, Ital. [2]; [3]",35
same,"Plant response rating: Ryegrass, Ital.","ryegrass, Ital. [2]; 62 g ai/ha",65
same,"Plant response rating: Ryegrass, Ital.","ryegrass, Ital. [2]; 125 g ai/ha",70
same,"Plant response rating: Wheat, Winter","wheat, winter; 16 g ai/ha",20
same,"Plant response rating: Wheat, Winter","wheat, winter; 31 g ai/ha",35
same,"Plant response rating: Wheat, Winter","wheat, winter; 62 g ai/ha",40
same,"Plant response rating: Wheat, Winter","wheat, winter; 125 g ai/ha",45
same,"Plant response rating: Wheat, Spring","wheat, spring; 16 g ai/ha",25
same,"Plant response rating: Wheat, Spring","wheat, spring; 31 g ai/ha",40
same,"Plant response rating: Wheat, Spring","wheat, spring; 62 g ai/ha",50
same,"Plant response rating: Wheat, Spring","wheat, spring; 125 g ai/ha",50
same,Plant response rating: Galium,galium; 16 g ai/ha,70
same,Plant response rating: Galium,galium; 31 g ai/ha,75
same,Plant response rating: Galium,galium; 62 g ai/ha,80
same,Plant response rating: Galium,galium; 125 g ai/ha,80
same,Plant response rating: Canarygrass,canarygrass; 16 g ai/ha,65
same,Plant response rating: Canarygrass,canarygrass; 31 g ai/ha,70
same,Plant response rating: Canarygrass,canarygrass; 62 g ai/ha,75
same,Plant response rating: Canarygrass,canarygrass; 125 g ai/ha,80
same,"Plant response rating (0 to 100), Windgrass",windgrass; [3],70
same,Plant response rating: Windgrass,windgrass; 62 g ai/ha,85
same,Plant response rating: Windgrass,windgrass; 125 g ai/ha,100
same,Plant response rating (scale of 0 to 100 where 0 is no effect and 100 is complete control),johnsongrass; 125 g ai/ha,95
same,Plant response rating (scale of 0 to 100 where 0 is no effect and 100 is complete control),johnsongrass; 250 g ai/ha,98
same,Johnsongrass plant response rating (0 to 100),johnsongrass; 31 g ai/ha,90
same,Johnsongrass plant response rating (0 to 100),johnsongrass; 62 g ai/ha,95
same,"Plant response rating: Barley, Winter","barley, winter; 16 g ai/ha",25
same,"Plant response rating: Barley, Winter","barley, winter; 31 g ai/ha",40
same,"Plant response rating: Barley, Winter","barley, winter; 62 g ai/ha",40
same,"Plant response rating: Barley, Winter","barley, winter; 125 g ai/ha",50
same,"Plant response rating: Barley, Spring","barley, spring; 16 g ai/ha",30
same,"Plant response rating: Barley, Spring","barley, spring; 31 g ai/ha",40
same,"Plant response rating: Barley, Spring","barley, spring; 62 g ai/ha",40
same,"Plant response rating: Barley, Spring","barley, spring; 125 g ai/ha",50
